Nc1ccc(S(=O)(=O)Nc2ncccn2)cc1
solubility (mole fraction)
Conditions | 293.15 K | 298.15 K | 303.15 K | 308.15 K | 313.15 K
in ethanol | 6.26e-06 | 7.74e-06 | 9.46e-06 | 1.17e-05 | 1.38e-05
in water | 3.8e-07 | 4.81e-07 | 6.49e-07 | 8.7e-07 | 1.14e-06
